Experiments:
[1] = Internal pharmaceutical residue concentration in exposed G. pulex (SPE, LC-MS/MS); details: C1 dose, 24 h
Experimental: Quantification of pharmaceutical concentrations in G. pulex at the 24 h exposure interval was performed. Separate exposures were set up in triplicate in beakers containing 200 mL of exposure solution (AFW spiked with the respective C1 pharmaceutical dose) and 20 organisms. At 24 h, animals were immediately rinsed with ultra-pure water and then frozen at − 20 °C for 24 h. […] Prior to extraction, frozen G. pulex samples were lyophilised at − 50 °C under vacuum for 48 h and milled in an agate mortar to a fine powder. For each analysis, 20 mg of a lyophilised composite sample were transferred to 2 mL polypropylene tubes (Eppendorf®, Hamburg, Germany), for solid-liquid extraction (SLE). […]
Briefly, 50 mg of lyophilised G. pulex were extracted in 5 mL of acetonitrile and pre-concentrated on Oasis HLB SPE cartridges (6 mL, 200 mg sorbent). […] Organic acids, nucleosides, nucleotides, sugars and AAs were measured using LC–HRMS. […]
Here, pharmaceutical residue quantification in exposed G. pulex was performed by a 3-point matrix-matched calibration curve. […] L-ornithine hydrochloride, inosine, thymidine, taurine, 1.7-dimethylxanthine and (−)-riboflavin were quantified using either ^13C,^15N-proline or ^13C,^15N-tyrosine as the internal standard. The remaining 15 compounds were quantified using external calibration and the target compound itself was used as external standard. […]

[2] = design: method as in Drugbank; details: 20 °C; ref Drugbank; cited from earlier work

For `Oc1cc(Cl)ccc1Oc1ccc(Cl)cc1Cl` [Triclosan], the “internal concentration in G. pulex (detection)” value [1] is listed as “not quantifiable” and the Water solubility [2] is listed as 12000 (20 ºC) mg L^-1.

From paper PMC4912218, “Targeted metabolomics of Gammarus pulex following controlled exposures to selected pharmaceuticals in water” (The Science of the Total Environment, 2016)
